# Reference: US5189055A, “Phenylpyrrolic compounds used as drugs, their preparation and application” (Centre National de la Recherche Scientifique (CNRS), priority 1988, dated 1993)
# Columns and labels:
# [1] = test system: Vero cells; experiment: Cytotoxicity / cytostasis test on the Vero line, % inhibition of proliferation (crystal violet); assay type: cell-based, monkey; conditions: 72 hours
# Procedure: (§1) The cytotoxicity studies were carried out, on the one hand on the Vero line (normal monkey kidney cell), Table I, and on the other hand on the KB line (human carcinoma of the nasopharynx), Table II, according to the following method:
# (§2) The products were introduced at the time of culturing, which is maintained for 72 hours. The products are tested at 100, 80, 40, 20 and 10 μm [sic]. […] The percentage values for inhibition of cell proliferation were measured by a colorimetric method with crystal violet, relative to control cultures containing DMSO (≤1%).
# [2] = test system: KB cells; experiment: Cytotoxicity / cytostasis test on the KB line, % inhibition of proliferation (crystal violet); assay type: cell-based, human; conditions: for % inhibition of proliferation: KB cells, 72 hours
# Procedure: as §1, §2
# [3] = test system: tubulin; conditions: natural substances binding to tubulin receptor sites; cited from earlier work
# [4] = test system: KB cells; experiment: Cytotoxicity / cytostasis test on the KB line, % inhibition of proliferation (crystal violet); assay type: cell-based, human; conditions: 5 μm [sic], 72 hours
SMILES,% inhibition of proliferation ([1]; 10 μm [sic]),% inhibition of proliferation ([1]; 20 μm [sic]),% inhibition of proliferation ([1]; 40 μm [sic]),% inhibition of proliferation ([1]; 80 μm [sic]),% inhibition of proliferation ([1]; 100 μm [sic]),% inhibition of proliferation ([2]; 10 μm [sic]),% inhibition of proliferation ([2]; 20 μm [sic]),% inhibition of proliferation ([2]; 40 μm [sic]),% inhibition of proliferation ([2]; 80 μm [sic]),% inhibition of proliferation ([2]; 100 μm [sic]),inhibition of tubulin polymerization [3],"selectivity with respect to the KB line ([2]; at low concentration, KB versus Vero)",% inhibition of proliferation [4],spiralization of tubulin [3]
"CCOC(=O)c1[nH]cc(C)c1-c1ccccc1NC(=O)CNC(=O)OCc1ccccc1 [(6), Ethyl 3-[2'-(N-benzyloxycarbonylglycylamido)phenyl]-4-methyl-2-pyrrolecarboxylat]",0%,0%,4%,48%,78%,0%,22%,31%,52%,68%,,,,
"CCCCc1c(C)c(-c2ccccc2N(C)C(=O)OCc2ccccc2)c(CCC2OCCO2)n1C [(22), 5-Butyl-1,4-dimethyl-2-(1,4-dioxa-2-ethylcarbaldehyde)-3-[2'-(N-benzyloxycarbonyl-N-methylamino)phenyl]pyrrole]",0%,0%,0%,54%,54%,0%,0%,0%,44%,59%,,,,
COc1cc([C@@H]2c3cc4c(cc3[C@H](O)[C@H]3COC(=O)[C@H]23)OCO4)cc(OC)c1OC [podophyllotoxin],,,,,,,,,,,inhibit its polymerization,,,
"CCOC(=O)c1[nH]cc(C)c1-c1ccccc1 [(1), Ethyl 4-methyl-3-phenyl-2-pyrrolecarboxylate]",0%,0%,20%,46%,63%,0%,0%,0%,35%,43%,,,,
"COC(=O)c1[nH]cc(C)c1-c1cccc([N+](=O)[O-])c1 [(2), Methyl 4-methyl-3-(3'-nitrophenyl)-2-pyrrolecarboxylate]",0%,3%,38%,75%,77%,0%,0%,10%,50%,72%,,,,
"Cc1cn(C)c(C(=O)N(C(=O)NC2CCCCC2)C2CCCCC2)c1-c1ccccc1[N+](=O)[O-] [(10), 1,4-Dimethyl-3-(2'-nitrophenyl)pyrrole-2(N,N'-cyclohexylureidocarboxamide)]",0%,0%,25%,100%,100%,0%,0%,0%,27%,45%,,,,
"CCCCc1c(C)c(-c2ccccc2NC)c(CCC2OCCO2)n1C [(23), 5-Butyl-1,4-dimethyl-2-(1,4-dioxa-2-ethylcarbaldehyde)-3-[2'-(N-methylamino)phenyl]pyrrole]",0%,0%,25%,69%,80%,48%,66%,81%,94%,100%,,some degree of selectivity at low concentration with respect to the KB line,4%,
CC[C@]1(O)C[C@H]2CN(CCc3c([nH]c4ccccc34)[C@@](C(=O)OC)(c3cc4c(cc3OC)N(C=O)[C@H]3[C@@](O)(C(=O)OC)[C@H](OC(C)=O)[C@]5(CC)C=CCN6CC[C@]43[C@@H]65)C2)C1 [vincristine],,,,,,,,,,,inhibit its polymerization,,,
Cc1c[nH]c2c(=O)[nH]c3ccccc3c12 [(4)],0%,0%,45%,49-70%,69-84%,0%,72%,100%,60%,68%,,,,
CC[C@]1(O)C[C@@H]2CN(CCc3c([nH]c4ccccc34)[C@@](C(=O)OC)(c3cc4c(cc3OC)N(C)[C@H]3[C@@](O)(C(=O)OC)[C@H](OC(C)=O)[C@]5(CC)C=CCN6CC[C@]43[C@@H]65)C2)C1 [vinblastine],,,,,,,,,,,inhibit its polymerization,,,can cause its spiralization
